Test results: paper PMC4698017 (Science (New York, N.Y.), 2015)
Substitutions are numbered along the chain they refer to.

Assays:
Sestrin3 = target: T1, Sestrin3 (Homo sapiens, UniProt P58005); test: [3H]Leucine binding, FLAG immunoprecipitate on beads; conditions: labelled compound
T1 sequence (P58005 1-492): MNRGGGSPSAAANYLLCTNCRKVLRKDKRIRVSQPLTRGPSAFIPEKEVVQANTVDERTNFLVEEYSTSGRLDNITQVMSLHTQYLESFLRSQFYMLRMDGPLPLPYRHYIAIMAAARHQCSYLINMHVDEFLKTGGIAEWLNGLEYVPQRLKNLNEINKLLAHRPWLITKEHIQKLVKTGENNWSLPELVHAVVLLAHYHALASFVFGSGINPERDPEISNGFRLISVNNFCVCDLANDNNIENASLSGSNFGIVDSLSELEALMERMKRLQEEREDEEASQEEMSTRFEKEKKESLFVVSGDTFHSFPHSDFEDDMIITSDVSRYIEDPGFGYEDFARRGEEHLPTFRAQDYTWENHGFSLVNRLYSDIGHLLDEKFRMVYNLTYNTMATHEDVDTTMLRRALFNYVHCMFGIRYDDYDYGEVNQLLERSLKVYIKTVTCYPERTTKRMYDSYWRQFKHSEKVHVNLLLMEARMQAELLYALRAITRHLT

[1] = target: T2, His-MBP-Sestrin2 (bacterially-produced Sestrin2) (Homo sapiens, UniProt P58004); test: thermal shift assay, Sypro orange; type: binding; conditions: maximal shift
T2 sequence (P58004 1-480): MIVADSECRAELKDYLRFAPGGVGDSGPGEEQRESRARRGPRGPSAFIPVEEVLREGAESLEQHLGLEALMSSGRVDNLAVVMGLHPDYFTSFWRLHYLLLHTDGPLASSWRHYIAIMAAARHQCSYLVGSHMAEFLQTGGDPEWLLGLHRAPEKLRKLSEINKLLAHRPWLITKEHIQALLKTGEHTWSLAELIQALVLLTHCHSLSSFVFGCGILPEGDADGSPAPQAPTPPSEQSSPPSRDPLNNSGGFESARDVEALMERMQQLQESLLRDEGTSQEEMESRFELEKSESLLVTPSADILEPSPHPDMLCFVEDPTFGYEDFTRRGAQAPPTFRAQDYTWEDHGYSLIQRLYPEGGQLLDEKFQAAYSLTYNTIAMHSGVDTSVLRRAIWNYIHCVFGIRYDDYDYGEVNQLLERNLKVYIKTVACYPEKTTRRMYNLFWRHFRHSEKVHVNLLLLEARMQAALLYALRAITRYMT

Sestrin1 (two isoforms) = target: T3, Sestrin1 (two isoforms) (Homo sapiens, UniProt Q9Y6P5); test: [3H]Leucine binding, FLAG immunoprecipitate on beads; conditions: labelled compound
T3 sequence (Q9Y6P5 1-492): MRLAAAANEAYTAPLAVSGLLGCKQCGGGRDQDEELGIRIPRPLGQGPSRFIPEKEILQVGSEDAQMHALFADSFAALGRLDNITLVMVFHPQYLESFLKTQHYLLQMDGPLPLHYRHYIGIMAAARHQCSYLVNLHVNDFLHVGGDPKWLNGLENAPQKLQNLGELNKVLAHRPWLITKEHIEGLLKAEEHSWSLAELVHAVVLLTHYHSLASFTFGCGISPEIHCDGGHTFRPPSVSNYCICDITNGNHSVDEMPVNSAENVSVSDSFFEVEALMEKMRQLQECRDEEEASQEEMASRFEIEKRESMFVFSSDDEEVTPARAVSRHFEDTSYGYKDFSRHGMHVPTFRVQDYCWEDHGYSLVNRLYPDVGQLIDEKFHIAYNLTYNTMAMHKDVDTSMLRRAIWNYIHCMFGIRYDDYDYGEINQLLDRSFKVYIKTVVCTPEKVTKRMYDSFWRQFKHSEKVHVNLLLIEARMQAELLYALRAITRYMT

Sestrin2 (FLAG-Sestrin2) [2] = target: T4, Sestrin2 (FLAG-Sestrin2) (Homo sapiens, UniProt P58004, S190W); test: as above; conditions: labelled compound
T4 sequence (P58004 1-480 S190W): T2 sequence (P58004 1-480) with S190W

Sestrin2 (FLAG-Sestrin2) [3] = target: T5, Sestrin2 (FLAG-Sestrin2) (Homo sapiens, UniProt P58004, E451A); test: as above; conditions: labelled compound
T5 sequence (P58004 1-480 E451A): T2 sequence (P58004 1-480) with E451A

Sestrin2 (FLAG-Sestrin2) [4] = target: T6, Sestrin2 (FLAG-Sestrin2) (Homo sapiens, UniProt P58004, L261A); test: as above; conditions: labelled compound
T6 sequence (P58004 1-480 L261A): T2 sequence (P58004 1-480) with L261A

Sestrin2-GATOR2 complex = Sestrin2-GATOR2 complex (Homo sapiens, UniProt P58004); test: disruption of immunopurified Sestrin2-GATOR2 complex, immunoblot; type: binding; conditions: 300 µM amino acid
Sestrin2-GATOR2 complex, sequence (Q96S15 whole entry partner, one chain of several): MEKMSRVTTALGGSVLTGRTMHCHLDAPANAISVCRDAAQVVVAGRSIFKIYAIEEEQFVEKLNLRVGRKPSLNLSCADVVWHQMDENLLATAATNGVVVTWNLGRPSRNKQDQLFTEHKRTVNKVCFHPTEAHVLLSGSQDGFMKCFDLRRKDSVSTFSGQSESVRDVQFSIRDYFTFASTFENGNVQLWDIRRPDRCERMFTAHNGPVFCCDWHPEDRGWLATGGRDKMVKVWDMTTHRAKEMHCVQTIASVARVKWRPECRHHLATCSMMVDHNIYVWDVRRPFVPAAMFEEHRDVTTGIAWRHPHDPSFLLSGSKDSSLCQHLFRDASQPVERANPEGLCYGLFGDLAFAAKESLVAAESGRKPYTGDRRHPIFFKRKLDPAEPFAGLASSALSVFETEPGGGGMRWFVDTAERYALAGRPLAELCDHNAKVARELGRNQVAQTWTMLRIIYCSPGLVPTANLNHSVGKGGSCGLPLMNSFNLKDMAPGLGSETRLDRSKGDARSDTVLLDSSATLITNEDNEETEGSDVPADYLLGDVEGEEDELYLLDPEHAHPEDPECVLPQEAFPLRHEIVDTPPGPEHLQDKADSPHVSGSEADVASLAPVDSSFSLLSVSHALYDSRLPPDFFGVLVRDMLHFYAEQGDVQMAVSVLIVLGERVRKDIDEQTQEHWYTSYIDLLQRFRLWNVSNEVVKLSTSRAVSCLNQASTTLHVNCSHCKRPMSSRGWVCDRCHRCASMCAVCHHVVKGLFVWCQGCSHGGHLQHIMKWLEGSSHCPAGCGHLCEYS
Sestrin2-GATOR2 complex, sequence (Q9NXC5 whole entry partner, one chain of several): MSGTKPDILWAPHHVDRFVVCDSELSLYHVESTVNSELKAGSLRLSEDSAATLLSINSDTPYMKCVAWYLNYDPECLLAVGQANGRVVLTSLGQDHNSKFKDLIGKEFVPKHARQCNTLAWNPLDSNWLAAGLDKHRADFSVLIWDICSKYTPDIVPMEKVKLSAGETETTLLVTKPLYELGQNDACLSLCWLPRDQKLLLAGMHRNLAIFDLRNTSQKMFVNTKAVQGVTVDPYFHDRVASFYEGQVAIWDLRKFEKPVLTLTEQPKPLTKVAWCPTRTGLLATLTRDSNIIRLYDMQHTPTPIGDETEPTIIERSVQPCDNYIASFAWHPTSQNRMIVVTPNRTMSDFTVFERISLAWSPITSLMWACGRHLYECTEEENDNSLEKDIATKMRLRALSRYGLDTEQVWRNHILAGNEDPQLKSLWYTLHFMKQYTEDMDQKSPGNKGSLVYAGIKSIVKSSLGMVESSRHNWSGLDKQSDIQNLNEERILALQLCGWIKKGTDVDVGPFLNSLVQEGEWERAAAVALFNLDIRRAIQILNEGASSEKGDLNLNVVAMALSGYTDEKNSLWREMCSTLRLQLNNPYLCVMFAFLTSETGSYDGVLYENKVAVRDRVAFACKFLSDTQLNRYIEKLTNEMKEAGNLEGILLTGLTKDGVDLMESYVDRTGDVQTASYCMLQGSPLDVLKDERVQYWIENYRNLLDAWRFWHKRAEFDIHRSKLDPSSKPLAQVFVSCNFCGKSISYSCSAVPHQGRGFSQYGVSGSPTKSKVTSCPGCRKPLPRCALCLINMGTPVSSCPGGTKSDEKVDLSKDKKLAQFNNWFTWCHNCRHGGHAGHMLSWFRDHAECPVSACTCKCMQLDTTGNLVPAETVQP
Sestrin2-GATOR2 complex, sequence (Q6PJI9 whole entry partner, one chain of several): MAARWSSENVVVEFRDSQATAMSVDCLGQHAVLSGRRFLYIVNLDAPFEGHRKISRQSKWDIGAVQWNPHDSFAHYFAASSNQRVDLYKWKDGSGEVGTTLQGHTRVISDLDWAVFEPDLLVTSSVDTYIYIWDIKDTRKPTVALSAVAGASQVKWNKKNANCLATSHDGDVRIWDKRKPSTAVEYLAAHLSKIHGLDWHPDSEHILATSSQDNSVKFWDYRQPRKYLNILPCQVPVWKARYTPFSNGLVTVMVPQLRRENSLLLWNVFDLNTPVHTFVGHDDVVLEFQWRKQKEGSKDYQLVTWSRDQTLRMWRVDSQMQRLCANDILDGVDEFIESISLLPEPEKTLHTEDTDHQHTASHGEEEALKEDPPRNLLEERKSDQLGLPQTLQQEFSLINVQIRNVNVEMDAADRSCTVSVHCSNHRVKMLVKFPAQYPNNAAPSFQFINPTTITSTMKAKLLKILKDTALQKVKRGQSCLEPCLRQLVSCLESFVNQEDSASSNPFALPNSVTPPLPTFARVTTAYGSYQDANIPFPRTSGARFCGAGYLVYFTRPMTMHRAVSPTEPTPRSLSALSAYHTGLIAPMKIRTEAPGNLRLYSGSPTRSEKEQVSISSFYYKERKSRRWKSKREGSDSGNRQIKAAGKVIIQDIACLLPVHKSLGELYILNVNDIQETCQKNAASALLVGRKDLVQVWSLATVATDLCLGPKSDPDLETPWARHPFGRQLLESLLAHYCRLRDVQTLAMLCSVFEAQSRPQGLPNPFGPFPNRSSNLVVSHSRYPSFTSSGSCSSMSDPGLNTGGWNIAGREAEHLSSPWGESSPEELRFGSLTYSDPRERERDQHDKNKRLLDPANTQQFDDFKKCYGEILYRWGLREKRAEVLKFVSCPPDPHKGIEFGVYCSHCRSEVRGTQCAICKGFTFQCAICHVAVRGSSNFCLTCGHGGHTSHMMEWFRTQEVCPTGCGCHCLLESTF
Sestrin2-GATOR2 complex, sequence (Q96EE3 whole entry partner, one chain of several): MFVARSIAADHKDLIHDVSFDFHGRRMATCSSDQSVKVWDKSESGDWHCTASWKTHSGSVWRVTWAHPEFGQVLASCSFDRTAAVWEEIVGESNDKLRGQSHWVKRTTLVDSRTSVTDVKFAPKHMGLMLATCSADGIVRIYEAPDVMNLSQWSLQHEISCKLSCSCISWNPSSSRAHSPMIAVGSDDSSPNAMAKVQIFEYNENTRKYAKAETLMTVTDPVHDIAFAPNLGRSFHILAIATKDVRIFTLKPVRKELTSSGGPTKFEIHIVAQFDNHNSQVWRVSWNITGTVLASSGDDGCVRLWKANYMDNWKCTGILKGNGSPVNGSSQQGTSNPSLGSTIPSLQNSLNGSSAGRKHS
Sestrin2-GATOR2 complex, sequence (P55735 2-322 partner, one chain of several): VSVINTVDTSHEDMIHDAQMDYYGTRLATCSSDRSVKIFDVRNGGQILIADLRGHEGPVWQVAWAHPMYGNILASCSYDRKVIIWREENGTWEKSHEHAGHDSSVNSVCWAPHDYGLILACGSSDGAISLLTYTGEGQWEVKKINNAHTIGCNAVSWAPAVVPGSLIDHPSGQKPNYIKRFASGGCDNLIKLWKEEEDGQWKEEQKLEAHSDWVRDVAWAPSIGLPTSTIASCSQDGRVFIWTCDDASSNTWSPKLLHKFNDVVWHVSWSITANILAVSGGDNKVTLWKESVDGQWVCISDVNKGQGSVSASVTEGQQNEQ

Row | very weak binding (Sestrin3) | melting temperature shift (dTm) [1] | SMILES | [3H]Leucine binding, FLAG immunoprecipitate on beads (Sestrin1 (two isoforms)) | [3H]Leucine binding, FLAG immunoprecipitate on beads (Sestrin2 (FLAG-Sestrin2) [2]) | no appreciable binding (Sestrin2 (FLAG-Sestrin2) [3]) | no appreciable binding (Sestrin2 (FLAG-Sestrin2) [4]) | disruption of immunopurified Sestrin2-GATOR2 complex, immunoblot (Sestrin2-GATOR2 complex)
1 | Sestrin3 bound very weakly | up to 8.5 °C | CC(C)C[C@H](N)C(=O)O [leucine] | Sestrin1 bound leucine to a similar extent as did Sestrin2 | Sestrin2 mutant (S190W) that still binds leucine | L261A and E451A, which do not bind leucine to an appreciable degree | L261A and E451A, which do not bind leucine to an appreciable degree | 
2 |  |  | CC(C)[C@H](N)C(=O)O [valine] |  |  |  |  | methionine, isoleucine, and valine– had any effect on the Sestrin2-GATOR2 interaction in vitro
